Measurements from the supplement of paper PMC6723410.

What was measured:
GUMC-403 [1] = test: AC50 for reduction of cell viability; higher = less potent; conditions: 48 h
GUMC-403 [2] = test: viability at highest tested concentration (max response) relative to DMSO (% of DMSO control); higher = less cytotoxic; conditions: library / dose series: MIPE library, 11-point 1:3 dilution, 48 h
Procedure, shortened: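 In 1536-well plates, 700 GUMC-403 papilloma cells per well, taken from a patient and grown by conditional reprogramming, were seeded in 5 μL F + Y medium and incubated overnight at 37 °C. Compounds were pinned in at 23 nL in an 11-point 1:3 series, and left for 48 h before CellTiter-Glo luminescence was read on a ViewLux against vehicle (100%) and empty (0%) wells. Reported values are viability at the highest tested concentration relative to vehicle control.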

[3] = library / dose series: MIPE library, 11-point 1:3 dilution
[4] = library / dose series: NPC library, 8-point 1:5 dilution

Row | Compound | AC50 for reduction of cell viability (GUMC-403 [1]; [3]) [µM] | viability (GUMC-403 [2]; top concentration 46.1 µM) | viability (GUMC-403 [2]; top concentration 92.2 µM) | AC50 for reduction of cell viability (GUMC-403 [1]; [4]) [µM]
1 | C[C@@H]1O[C@@H](O[C@H]\2CC[C@]\3(C)[C@@H]4CC[C@]5(C)[C@@H](CC[C@@]5(O)[C@H]4CCC3=C2)C/6=C/OC(=O)/C=C6)[C@H](O)[C@H](O)[C@@H]1O | 0.0166 | 44.3 |  | 
2 | CCN(CC)CCNC(=O)c1c(C)[nH]c(/C=C2\C(=O)Nc3ccc(F)cc32)c1C | 42.9 |  | 5.58 | 
3 | CN1\N=C(N)/C2=C[N]([C@@H]3O[C@H](CO[P](O)(O)=O)[C@@H](O)[C@H]3O)C4=C2C1=NC=N4 | 1.48 | 57.8 |  | 
4 | CC(C)C[C@H](NC(=O)[C@@H](NC(=O)c1cccc(-c2ccccc2)n1)[C@@H](C)O)B(O)O | 1.87 | 26.3 |  | 
5 | Cl.Cl.Fc1ccc(C(OCCN2CCN(CCCc3ccccc3)CC2)c2ccc(F)cc2)cc1 |  | 67.6 |  | 11.9
6 | O=C(NOCC1CC1)c1ccc(F)c(F)c1Nc1ccc(I)cc1Cl | 23.5 | 20.7 |  | 13.3
7 | CCC1=C2CN3C(=O)\C4=C(/C=C3/C2=NC5=CC=C(O)C=C15)[C@@](O)(CC)C(=O)OC4 | 4.69 | 78.2 |  | 
8 | COC1=CC(=CC(=C1)C2=CC=C3N=CC\4=C(N(C(=O)\C=C4)C5=CC(=C(C=C5)N6CCNCC6)C(F)(F)F)C3=C2)OC | 16.6 | 28.5 |  | 
9 | C[C@H]([C@H]1C\C(=C(CO)/C(=O)O1)C)[C@H]2CC[C@H]3[C@@H]4C[C@H]5O[C@]56[C@@H](O)\C=C/C(=O)[C@]6(C)[C@H]4CC[C@]23C | 14.8 | 5.02 |  | 
10 | CN1CC[C@H]([C@@H](O)C1)C2=C(O)C=C(O)C3=C2O\C(=C/C3=O)C4=CC=CC=C4Cl | 0.132 | 61.2 |  | 
11 | Oc1cccc(-c2nc(N3CCOCC3)c3oc4ncccc4c3n2)c1 | 0.762 |  | 28.3 | 
12 | C/C(=N\NC(=S)N1CCC1)c1ccccn1 | 4.18 | 44 |  | 
13 | Nc1cccc(-c2cc3c(Oc4cccc(O)c4)ncnc3[nH]2)c1 | 8.33 | 58 |  | 
14 | CNC(=O)c1nn(C)c2c1C(C)(C)Cc1cnc(Nc3ccc(N4CCN(C)CC4)cc3)nc1-2 | 4.69 | 58.7 |  | 
15 | CCN(CC)CCNC(=O)c1ccc2nc(-c3ccccc3)c(-c3ccc(CN4CCC(n5c(=O)[nH]c6ccccc65)CC4)cc3)nc2c1 | 10.5 | 3.89 |  | 
16 | C[S+](=O)([O-])N1CCc2c(-c3cnc(N)nc3)nc(N3CCOCC3)nc21 | 0.332 | 46.2 |  | 
17 | O=C(Nc1c[nH]nc1-c1nc2cc(CN3CCOCC3)ccc2[nH]1)NC1CC1 | 6.62 | 8.38 |  | 
18 | Cn1c2ccccc2c2c3c(c4c5ccccc5n(CCC#N)c4c21)CNC3=O | 7.43 | 65.1 |  | 
19 | N=C(NCCCCCCNC(=N)NC(=N)Nc1ccc(Cl)cc1)NC(=N)Nc1ccc(Cl)cc1 | 26.4 | 5.73 |  | 
20 | FC(F)c1nc2ccccc2n1-c1nc(N2CCOCC2)nc(N2CCOCC2)n1 | 0.418 | 71.9 |  | 
21 | c1cncc(CN2CCC(n3ncc4c(N5CCOCC5)nc(-c5ccc6[nH]ccc6c5)nc43)CC2)c1 | 0.332 | 62.6 |  | 
22 | CC(C)C[C@H](NC(=O)CNC(=O)c1cc(Cl)ccc1Cl)B1OC(=O)CC(CC(=O)O)(C(=O)O)O1 (some centres undefined) | 2.35 | 38.8 |  | 
23 | COc1cc(C[C@@H](CO)[C@H](CO)Cc2ccc(O)c(OC)c2)ccc1O | 2.64 | 34.9 |  | 
24 | Cc1nc(Nc2ncc(C(=O)Nc3c(C)cccc3Cl)s2)cc(N2CCN(CCO)CC2)n1 | 0.209 | 58.6 |  | 
25 | CCC[C@H](NC(=O)/C(C#N)=C/c1cccc(Br)n1)c1ccccc1 | 16.6 | 19.1 |  | 
26 | COc1cc(N2CCC(C(N)=O)CC2)ccc1Nc1nc(N)c(Cl)c(Nc2ccccc2[S+](=O)([O-])C(C)C)n1 | 8.33 | 68.2 |  | 
27 | CC1=C(/C=C/C(C)=C/C=C/C(C)=C/C(=O)Nc2ccc(O)cc2)C(C)(C)CCC1 | 48.1 |  | 4.3 | 
28 | Cc1ncc(-c2ccnc(Nc3ccc([S+](C)(=O)[O-])cc3)n2)n1C(C)C | 10.5 | 47.8 |  | 
29 | CNCC[C@H](Oc1cccc2ccccc12)c1cccs1 | 10.5 | 36 |  | 
